Experimental data as given in ChEMBL document CHEMBL3734723, “Synthesis and anticancer activity of 6-heteroarylcoumarins” (2015).

Key:
Type in all cases: functional
[1] = Cytotoxicity against human Hs578T cells assessed as cell growth at 10 uM incubated for 48 hrs by sulforhodamine B assay; conditions: Hs-578T, read-out: Activity
[2] = Cytotoxicity against human HCT116 cells assessed as cell growth at 10 uM incubated for 48 hrs by sulforhodamine B assay; conditions: HCT-116, 48 h, read-out: Activity
[3] = Growth inhibition of human HCC2998 cells incubated for 48 hrs by sulforhodamine B assay; conditions: HCC 2998, 48 h; for CC50: read-out: LC50 (the source's name)
MCF7 = assay: Cytotoxicity against human MCF7 cells assessed as cell growth at 10 uM incubated for 48 hrs by sulforhodamine B assay; conditions: MCF7, 48 h, read-out: Activity
NCI-H23 = assay: Cytotoxicity against human NCI-H23 cells assessed as cell growth at 10 uM incubated for 48 hrs by sulforhodamine B assay; conditions: NCI-H23, 48 h, read-out: Activity
SR = assay: Cytotoxicity against human SR cells assessed as cell growth at 10 uM incubated for 48 hrs by sulforhodamine B assay; conditions: read-out: Activity
[4] = Cytotoxicity against human RXF393 cells assessed as cell growth at 10 uM incubated for 48 hrs by sulforhodamine B assay; conditions: RXF 393, 48 h, read-out: Activity
[5] = Cytotoxicity against human LOXIMVI cells assessed as cell growth at 10 uM incubated for 48 hrs by sulforhodamine B assay; conditions: LOX IMVI, read-out: Activity
[6] = Growth inhibition of human breast cancer cells after 48 hrs by sulforhodamine B assay; conditions: Cancer cell lines; for CC50: read-out: LC50 (the source's name)
786-0 [7] = assay: Growth inhibition of human 786-0 cells incubated for 48 hrs by sulforhodamine B assay; conditions: 786-0, 48 h; for CC50: read-out: LC50 (the source's name)
[8] = Growth inhibition of human HCT116 cells incubated for 48 hrs by sulforhodamine B assay; conditions: HCT-116, 48 h; for CC50: read-out: LC50 (the source's name)
[9] = Cytotoxicity against human TK10 cells assessed as cell growth at 10 uM incubated for 48 hrs by sulforhodamine B assay; conditions: TK-10, 48 h, read-out: Activity
[10] = Growth inhibition of human renal cancer cells after 48 hrs by sulforhodamine B assay; conditions: Cancer cell lines; for CC50: read-out: LC50 (the source's name)
[11] = Growth inhibition of human SNB75 cells incubated for 48 hrs by sulforhodamine B assay; conditions: SNB-75, 48 h; for CC50: read-out: LC50 (the source's name)
U-251 = assay: Growth inhibition of human U251 cells incubated for 48 hrs by sulforhodamine B assay; conditions: U-251, 48 h; for CC50: read-out: LC50 (the source's name)
[12] = Growth inhibition of human CNS cancer cells after 48 hrs by sulforhodamine B assay; conditions: Cancer cell lines; for CC50: read-out: LC50 (the source's name)
MDA-MB-468 = assay: Growth inhibition of human MDA-MB-468 cells incubated for 48 hrs by sulforhodamine B assay; conditions: MDA-MB-468, 48 h; for CC50: read-out: LC50 (the source's name)
[13] = Cytotoxicity against human IGROV1 cells assessed as cell growth at 10 uM incubated for 48 hrs by sulforhodamine B assay; conditions: IGROV-1, 48 h, read-out: Activity
[14] = Growth inhibition of human UACC62 cells incubated for 48 hrs by sulforhodamine B assay; conditions: UACC-62, 48 h; for CC50: read-out: LC50 (the source's name)
[15] = Cytotoxicity against human OVCAR4 cells assessed as cell growth at 10 uM incubated for 48 hrs by sulforhodamine B assay; conditions: OVCAR-4, 48 h, read-out: Activity
KM12 = assay: Cytotoxicity against human KM12 cells assessed as cell growth at 10 uM incubated for 48 hrs by sulforhodamine B assay; conditions: KM12, 48 h, read-out: Activity
[16] = Growth inhibition of human BT549 cells incubated for 48 hrs by sulforhodamine B assay; conditions: BT-549, 48 h; for CC50: read-out: LC50 (the source's name)
A549 = assay: Cytotoxicity against human A549 cells assessed as cell growth at 10 uM incubated for 48 hrs by sulforhodamine B assay; conditions: A549, 48 h, read-out: Activity
786-0 [17] = assay: Cytotoxicity against human 786-0 cells assessed as cell growth at 10 uM incubated for 48 hrs by sulforhodamine B assay; conditions: 786-0, 48 h, read-out: Activity
MDA-MB-231 = assay: Cytotoxicity against human MDA-MB-231 cells assessed as cell growth at 10 uM incubated for 48 hrs by sulforhodamine B assay; conditions: MDA-MB-231, 48 h, read-out: Activity
[18] = Growth inhibition of human SF268 cells incubated for 48 hrs by sulforhodamine B assay; conditions: SF-268, 48 h; for CC50: read-out: LC50 (the source's name)
[19] = Growth inhibition of human RPMI8226 cells incubated for 48 hrs by sulforhodamine B assay; conditions: RPMI-8226, 48 h; for CC50: read-out: LC50 (the source's name)
ACHN = assay: Cytotoxicity against human ACHN cells assessed as cell growth at 10 uM incubated for 48 hrs by sulforhodamine B assay; conditions: read-out: Activity
[20] = Growth inhibition of human non-small cell lung cancer cells after 48 hrs by sulforhodamine B assay; conditions: Cancer cell lines; for CC50: read-out: LC50 (the source's name)
[21] = Cytotoxicity against human SF539 cells assessed as cell growth at 10 uM incubated for 48 hrs by sulforhodamine B assay; conditions: SF-539, 48 h, read-out: Activity
[22] = Cytotoxicity against human HCT15 cells assessed as cell growth at 10 uM incubated for 48 hrs by sulforhodamine B assay; conditions: HCT-15, 48 h, read-out: Activity
SK-MEL-28 = assay: Growth inhibition of human SK-MEL-28 cells incubated for 48 hrs by sulforhodamine B assay; conditions: SK-MEL-28, 48 h; for CC50: read-out: LC50 (the source's name)
SN12C = assay: Cytotoxicity against human SN12C cells assessed as cell growth at 10 uM incubated for 48 hrs by sulforhodamine B assay; conditions: read-out: Activity
SK-MEL-5 = assay: Cytotoxicity against human SK-MEL-5 cells assessed as cell growth at 10 uM incubated for 48 hrs by sulforhodamine B assay; conditions: SK-MEL-5, 48 h, read-out: Activity
Malme-3M = assay: Cytotoxicity against human MALME-3M cells assessed as cell growth at 10 uM incubated for 48 hrs by sulforhodamine B assay; conditions: read-out: Activity
NCI-H460 = assay: Cytotoxicity against human NCI-H460 cells assessed as cell growth at 10 uM incubated for 48 hrs by sulforhodamine B assay; conditions: NCI-H460, 48 h, read-out: Activity

`Cc1cc(=O)oc2c(C)c(O)c(-c3ccnc(N)n3)cc12` gave a growth at 10 µM [1] of 51%, a growth at 10 µM [2] of 15.8% and a GI50 [3] of over 100 µM. For the same molecule, the TGI [3] was over 100 µM, the CC50 [3] was over 100 µM and the growth at 10 µM (MCF7) was 22.1%. The growth at 10 µM (NCI-H23) was 68.3%, the growth at 10 µM (SR) was 9.17% and the growth at 10 µM [4] was 55.7%. It also gave a growth at 10 µM [5] of 27.2%, a GI50 [6] of 32 µM and a TGI [6] of over 100 µM. It also gave a CC50 [6] of over 100 µM, a GI50 (786-0 [7]) of 29.8 µM and a TGI (786-0 [7]) of over 100 µM. For the same molecule, the CC50 (786-0 [7]) was over 100 µM, the GI50 [8] was 3.05 µM and the TGI [8] was over 100 µM. It also gave a CC50 [8] of over 100 µM, a growth at 10 µM [9] of 61.9% and a GI50 [10] of 10.6 µM. For the same molecule, the TGI [10] was over 100 µM, the CC50 [10] was over 100 µM and the GI50 [11] was 5.08 µM. For the same molecule, the TGI [11] was 92.9 µM, the CC50 [11] was over 100 µM and the GI50 (U-251) was 8.59 µM. The TGI (U-251) was over 100 µM, the CC50 (U-251) was over 100 µM and the GI50 [12] was 13.1 µM. For the same molecule, the TGI [12] was over 100 µM, the CC50 [12] was over 100 µM and the GI50 (MDA-MB-468) was 4.53 µM. The TGI (MDA-MB-468) was over 100 µM, the CC50 (MDA-MB-468) was over 100 µM and the growth at 10 µM [13] was 60.9%. The GI50 [14] was 17.2 µM, the TGI [14] was over 100 µM and the CC50 [14] was over 100 µM. For the same molecule, the growth at 10 µM [15] was 68.6%, the growth at 10 µM (KM12) was 66.1% and the GI50 [16] was 47.8 µM. The TGI [16] was over 100 µM, the CC50 [16] was over 100 µM and the growth at 10 µM (A549) was 39.5%. The growth at 10 µM (786-0 [17]) was 62.1%, the growth at 10 µM (MDA-MB-231) was 69% and the GI50 [18] was 12.3 µM. The TGI [18] was over 100 µM, the CC50 [18] was over 100 µM and the GI50 [19] was 55.1 µM. It also gave a TGI [19] of over 100 µM, a CC50 [19] of over 100 µM and a growth at 10 µM (ACHN) of 26.9%. The GI50 [20] was 24.4 µM, the TGI [20] was over 100 µM and the CC50 [20] was over 100 µM. It also gave a growth at 10 µM [21] of 60.7%, a growth at 10 µM [22] of 50.4% and a GI50 (SK-MEL-28) of over 100 µM. It also gave a TGI (SK-MEL-28) of over 100 µM, a CC50 (SK-MEL-28) of over 100 µM and a growth at 10 µM (SN12C) of 50.8%. It also gave a growth at 10 µM (SK-MEL-5) of 38.5%, a growth at 10 µM (Malme-3M) of 66.9% and a growth at 10 µM (NCI-H460) of 19.8%.
For `Cc1cc(=O)oc2c(C)c(O)c(-c3cc4ccc(F)cc4[nH]3)cc12`, the growth at 10 µM [1] was 42.1%, the growth at 10 µM [2] was 22.9% and the GI50 [3] was 3.49 µM. It also gave a TGI [3] of 13.5 µM, a CC50 [3] of 39.9 µM and a growth at 10 µM (MCF7) of 28.3%. The growth at 10 µM (NCI-H23) was 10.2%, the growth at 10 µM (SR) was 28.4% and the growth at 10 µM [4] was 64.4%. For the same molecule, the growth at 10 µM [5] was 36.4%, the GI50 [6] was 2.67 µM and the TGI [6] was 14.2 µM. For the same molecule, the CC50 [6] was 89.3 µM, the GI50 (786-0 [7]) was 4.1 µM and the TGI (786-0 [7]) was 14 µM. For the same molecule, the CC50 (786-0 [7]) was 42.6 µM, the GI50 [8] was 2.62 µM and the TGI [8] was 9.87 µM. For the same molecule, the CC50 [8] was 31.5 µM, the growth at 10 µM [9] was 59.9% and the GI50 [10] was 2.94 µM. For the same molecule, the TGI [10] was 10.8 µM, the CC50 [10] was 43.1 µM and the GI50 [11] was 5.7 µM. It also gave a TGI [11] of 24 µM, a CC50 [11] of 78.3 µM and a GI50 (U-251) of 3.05 µM. It also gave a TGI (U-251) of 13.2 µM, a CC50 (U-251) of 43.4 µM and a GI50 [12] of 3.89 µM. For the same molecule, the TGI [12] was 17.5 µM, the CC50 [12] was 72.9 µM and the GI50 (MDA-MB-468) was 2.31 µM. For the same molecule, the TGI (MDA-MB-468) was 8.66 µM, the CC50 (MDA-MB-468) was 80.4 µM and the growth at 10 µM [13] was 33.2%. It also gave a GI50 [14] of 2.19 µM, a TGI [14] of 13.2 µM and a CC50 [14] of 39.4 µM. It also gave a growth at 10 µM [15] of 33.7%, a growth at 10 µM (KM12) of 33.2% and a GI50 [16] of 3.57 µM. For the same molecule, the TGI [16] was 13.6 µM, the CC50 [16] was 65.9 µM and the growth at 10 µM (A549) was 39.3%. It also gave a growth at 10 µM (786-0 [17]) of 42.2%, a growth at 10 µM (MDA-MB-231) of 59.3% and a GI50 [18] of 3.42 µM. The TGI [18] was 15 µM, the CC50 [18] was 83.3 µM and the GI50 [19] was 1.9 µM. The TGI [19] was 6.19 µM, the CC50 [19] was over 100 µM and the growth at 10 µM (ACHN) was 27.6%. For the same molecule, the GI50 [20] was 2.75 µM, the TGI [20] was 12.4 µM and the CC50 [20] was 64.1 µM. The growth at 10 µM [21] was 47.3%, the growth at 10 µM [22] was 31.9% and the GI50 (SK-MEL-28) was 4.58 µM. The TGI (SK-MEL-28) was 18.3 µM, the CC50 (SK-MEL-28) was 64.2 µM and the growth at 10 µM (SN12C) was 35.1%. It also gave a growth at 10 µM (SK-MEL-5) of 8.97%, a growth at 10 µM (Malme-3M) of 31.9% and a growth at 10 µM (NCI-H460) of 28.4%.
